# Target: hKIF18A (1-374) (Homo sapiens (Human), UniProt Q8NI77)
# Experiment: Inhibition of KIF18A microtubule-dependent ATPase activity (ADP-Glo)
# Format: biochemical
# Settings: 4 nM hKIF18A (1-374)
# Experimental: Test compounds were plated in a 3× dilution scheme in a 384-well plate. Assay buffer: 80 mM PIPES (pH 6.9), 1 mM MgCl2, 75 mM KCl, 1 mM EGTA, 1 mM DTT, 0.01% BSA, 0.005% Tween-20, 1 μM Taxol in H2O. […] After incubation at room temperature for 30 min, 2.5 μL of microtubule mix was added [0.2 mg/mL pre-formed microtubules, 2.0 mM ATP in assay buffer], the plate was centrifuged for 30 s and then incubated at 28° C. for 60 min. 5 μL of Promega® ADP-Glo Max R1 was added, the plate was centrifuged for 30 s, and the mixture incubated for 4 h at room temperature. 10 μL of Promega® ADP-Glo Max R2 was added, the plate centrifuged for 30 s, and incubated for 60 min at room temperature. Luminescence was measured with an Envision plate reader, and % Inhibition was calculated for each well as: ([max−min]−[test−min])/[max−min]. IC50 values were calculated from concentration vs. % Inhibition data via a four-parameter variable slope model.
# Sequence of hKIF18A (1-374) (Q8NI77 1-374): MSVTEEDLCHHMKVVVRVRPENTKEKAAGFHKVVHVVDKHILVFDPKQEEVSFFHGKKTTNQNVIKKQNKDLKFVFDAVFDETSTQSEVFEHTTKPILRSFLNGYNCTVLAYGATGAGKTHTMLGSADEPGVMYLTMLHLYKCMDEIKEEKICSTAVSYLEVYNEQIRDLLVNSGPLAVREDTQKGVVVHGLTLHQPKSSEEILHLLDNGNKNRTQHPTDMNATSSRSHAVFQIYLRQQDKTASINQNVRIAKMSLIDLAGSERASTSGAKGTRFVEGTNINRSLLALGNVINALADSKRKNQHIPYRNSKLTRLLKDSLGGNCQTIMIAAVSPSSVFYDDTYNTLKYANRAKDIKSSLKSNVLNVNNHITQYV
row,IC50,SMILES
1,63 nM,"Cc1ncc(-c2cn(-c3ccc(NS(=O)(=O)CCO)cc3N3CCC4(CC3)CC4)nn2)nc1C1=CCCC1 [Compound 161, N-(4-(4-(6-(cyclopent-1-en-1-yl)-5-methylpyrazin-2-yl)-1H-1,2,3-triazol-1-yl)-3-(6-azaspiro[2.5]octan-6-yl)phenyl)-2-hydroxyethane-1-sulfonamide]"
2,10 nM,"O=S(=O)(CCO)Nc1ccc(-n2cc(-c3nc(N4CCC(F)(F)CC4)sc3F)nn2)c(N2CCC3(CC2)CC3)c1 [Compound 93, N-(4-(4-(2-(4,4-difluoropiperidin-1-yl)-5-fluorothiazol-4-yl)-1H-1,2,3-triazol-1-yl)-3-(6-azaspiro[2.5]octan-6-yl)phenyl)-2-hydroxyethane-1-sulfonamide]"
3,> 3000 nM,"CS(=O)(=O)Nc1ccc(-c2cnc(-c3cccc(N4CCOCC4)n3)[nH]2)c(N2CCC3(CC2)CC3)c1 [Compound 27, N-(4-(2-(6-morpholinopyridin-2-yl)-1H-imidazol-5-yl)-3-(6-azaspiro[2.5]octan-6-yl)phenyl)methanesulfonamide]"
4,2800 nM,"O=S(=O)(CCO)Nc1ccc(-c2cn(-c3cnn(C4CCC(F)(F)CC4)c3)nn2)c(N2CCC3(CC2)CC3)c1 [Compound 166, N-(4-(1-(1-(4,4-difluorocyclohexyl)-1H-pyrazol-4-yl)-1H-1,2,3-triazol-4-yl)-3-(6-azaspiro[2.5]octan-6-yl)phenyl)-2-hydroxyethane-1-sulfonamide]"
5,12 nM,"O=S(=O)(CCO)Nc1ccc(-n2cc(-c3ccn(CC4CCC4)n3)nn2)c(N2CCC3(CC2)CC3)c1 [Compound 77, N-(4-(4-(1-(cyclobutylmethyl)-1H-pyrazol-3-yl)-1H-1,2,3-triazol-1-yl)-3-(6-azaspiro[2.5]octan-6-yl)phenyl)-2-hydroxyethane-1-sulfonamide]"
6,29 nM,"CCS(=O)(=O)Nc1ccc(-n2cc(-c3cc(CO)cc(N4CCC(F)(F)CC4)n3)nn2)c(N2CCC3(CC2)CC3)c1 [Compound 131, N-(4-(4-(6-(4,4-difluoropiperidin-1-yl)-4-(hydroxymethyl)pyridin-2-yl)-1H-1,2,3-triazol-1-yl)-3-(6-azaspiro[2.5]octan-6-yl)phenyl)ethanesulfonamide]"
7,21 nM,"O=S(=O)(Nc1ccc(-n2cc(-c3ccc(F)c(N4CCC(F)(F)CC4)n3)nn2)c(N2CCCCC2)c1)C1(CO)CC1 [Compound 157, N-(4-(4-(6-(4,4-difluoropiperidin-1-yl)-5-fluoropyridin-2-yl)-1H-1,2,3-triazol-1-yl)-3-(piperidin-1-yl)phenyl)-1-(hydroxymethyl)cyclopropane-1-sulfonamide]"
8,5.1 nM,"O=S(=O)(CCO)Nc1ccc(-c2nnc(-c3cccc(N4CCC(F)(F)CC4)n3)[nH]2)c(N2CCC3(CC2)CC3)c1 [Compound 8, N-(4-(5-(6-(4,4-difluoropiperidin-1-yl)pyridin-2-yl)-4H-1,2,4-triazol-3-yl)-3-(6-azaspiro[2.5]octan-6-yl)phenyl)-2-hydroxyethane-1-sulfonamide]"
9,3.8 nM,"O=C(O)c1cc(-c2cn(-c3ccc(NS(=O)(=O)CCO)cc3N3CCC4(CC3)CC4)nn2)nc(N2CCC(F)(F)CC2)n1 [Compound 158, 2-(4,4-difluoropiperidin-1-yl)-6-(1-(4-((2-hydroxyethyl)sulfonamido)-2-(6-azaspiro[2.5]octan-6-yl)phenyl)-1H-1,2,3-triazol-4-yl)pyrimidine-4-carboxylic acid]"
10,17 nM,"Cc1cc(-c2cn(-c3ccc(NS(=O)(=O)CCO)cc3N3CCC4(CC3)CC4)nn2)nc(N2CCC(F)(F)CC2)c1 [Compound 48, N-(4-(4-(6-(4,4-difluoropiperidin-1-yl)-4-methylpyridin-2-yl)-1H-1,2,3-triazol-1-yl)-3-(6-azaspiro[2.5]octan-6-yl)phenyl)-2-hydroxyethane-1-sulfonamide]"
11,37 nM,"CS(=O)(=O)Nc1ccc(-n2cc(-c3cccc(N4CC5(CCC5)C4)n3)nn2)c(N2CCC3(CC2)CC3)c1 [Compound 57, N-(4-(4-(6-(2-azaspiro[3.3]heptan-2-yl)pyridin-2-yl)-1H-1,2,3-triazol-1-yl)-3-(6-azaspiro[2.5]octan-6-yl)phenyl)methanesulfonamide]"
12,26 nM,"O=S(=O)(CCO)Nc1ccc(-c2cn(-c3ccc(F)c(N4CC5CC5C4)n3)nn2)c(N2CCC3(CC2)CC3)c1 (stereo not shown) [Compound 142, N-(4-(1-(6-(3-azabicyclo[3.1.0]hexan-3-yl)-5-fluoropyridin-2-yl)-1H-1,2,3-triazol-4-yl)-3-(6-azaspiro[2.5]octan-6-yl)phenyl)-2-hydroxyethane-1-sulfonamide]"
13,8.6 nM,"O=S(=O)(CCO)Nc1ccc(-c2cn(-c3cccc(N4CCC(F)(F)CC4)c3)nn2)c(N2CCC3(CC2)CC3)c1 [Compound 65, N-(4-(1-(3-(4,4-difluoropiperidin-1-yl)phenyl)-1H-1,2,3-triazol-4-yl)-3-(6-azaspiro[2.5]octan-6-yl)phenyl)-2-hydroxyethane-1-sulfonamide]"
14,17 nM,"O=S(=O)(CCO)Nc1ccc(-n2cc(-c3cc(F)cc(N4CCC(F)(F)CC4)n3)nn2)c(N2CCC3(CC2)CC3)c1 [Compound 78, N-(4-(4-(6-(4,4-difluoropiperidin-1-yl)-4-fluoropyridin-2-yl)-1H-1,2,3-triazol-1-yl)-3-(6-azaspiro[2.5]octan-6-yl)phenyl)-2-hydroxyethane-1-sulfonamide]"
15,22 nM,"O=S(=O)(CCO)Nc1ccc(-c2cn(-c3ccc(F)c(N4CCCCC4)n3)nn2)c(N2CCC3(CC2)CC3)c1 [Compound 147, N-(4-(1-(5-fluoro-6-(piperidin-1-yl)pyridin-2-yl)-1H-1,2,3-triazol-4-yl)-3-(6-azaspiro[2.5]octan-6-yl)phenyl)-2-hydroxyethane-1-sulfonamide]"
16,3600 nM,"CS(=O)(=O)Nc1ccc(-c2nc(-c3cccc(N4CCOCC4)n3)no2)c(N2CCC3(CC2)CC3)c1 [Compound 163, N-(4-(3-(6-morpholinopyridin-2-yl)-1,2,4-oxadiazol-5-yl)-3-(6-azaspiro[2.5]octan-6-yl)phenyl)methanesulfonamide]"
17,75 nM,"Cc1cc(N2CCC(F)(F)CC2)nc(-n2cc(-c3ccc(NS(=O)(=O)C4CC4)cc3N3CCC4(CC3)CC4)nn2)c1 [Compound 105, N-(4-(1-(6-(4,4-difluoropiperidin-1-yl)-4-methylpyridin-2-yl)-1H-1,2,3-triazol-4-yl)-3-(6-azaspiro[2.5]octan-6-yl)phenyl)cyclopropanesulfonamide]"
18,60 nM,"O=S(=O)(CCO)Nc1ccc(-n2cc(-c3ccn(C4CCC4)n3)nn2)c(N2CCC3(CC2)CC3)c1 [Compound 82, N-(4-(4-(1-cyclobutyl-1H-pyrazol-3-yl)-1H-1,2,3-triazol-1-yl)-3-(6-azaspiro[2.5]octan-6-yl)phenyl)-2-hydroxyethane-1-sulfonamide]"
19,15 nM,"Cc1cc(-c2cn(-c3ccc(NS(=O)(=O)CCO)cc3N3CCC(C(F)F)CC3)nn2)nc(N2CCC(F)(F)CC2)c1 [Compound 104, N-(3-(4-(difluoromethyl)piperidin-1-yl)-4-(4-(6-(4,4-difluoropiperidin-1-yl)-4-methylpyridin-2-yl)-1H-1,2,3-triazol-1-yl)phenyl)-2-hydroxyethane-1-sulfonamide]"
20,14 nM,"CCS(=O)(=O)Nc1ccc(-n2cc(-c3ccc(F)c(C(O)C4CCCC4)n3)nn2)c(N2CCC3(CC2)CC3)c1 (stereo not shown) [Compound 134, N-(4-(4-(6-(cyclopentyl(hydroxy)methyl)-5-fluoropyridin-2-yl)-1H-1,2,3-triazol-1-yl)-3-(6-azaspiro[2.5]octan-6-yl)phenyl)ethanesulfonamide]"
21,8.1 nM,"Cc1cc(-c2cn(-c3ccc(NS(=O)(=O)CCO)cc3N3CCC4(CC3)CC4)nn2)nc(N2CC3CC3C2)n1 (stereo not shown) [Compound 99, N-(4-(4-(2-(3-azabicyclo[3.1.0]hexan-3-yl)-6-methylpyrimidin-4-yl)-1H-1,2,3-triazol-1-yl)-3-(6-azaspiro[2.5]octan-6-yl)phenyl)-2-hydroxyethane-1-sulfonamide]"
22,12 nM,"Cc1cc(-c2cn(-c3ccc(NS(=O)(=O)CCO)cc3N3CCC4(CC3)CC4)nn2)nc(N2CCCC2)n1 [Compound 98, 2-hydroxy-N-(4-(4-(6-methyl-2-(pyrrolidin-1-yl)pyrimidin-4-yl)-1H-1,2,3-triazol-1-yl)-3-(6-azaspiro[2.5]octan-6-yl)phenyl)ethane-1-sulfonamide]"
23,4.4 nM,"CCS(=O)(=O)Nc1ccc(-n2cc(-c3c[n+]([O-])cc(N4CCC(F)(F)CC4)n3)nn2)c(N2CCC3(CC2)CC3)c1 [Compound 146, 3-(4,4-difluoropiperidin-1-yl)-5-(1-(4-(ethylsulfonamido)-2-(6-azaspiro[2.5]octan-6-yl)phenyl)-1H-1,2,3-triazol-4-yl)pyrazine 1-oxide]"
24,18 nM,"O=S(=O)(CCO)Nc1ccc(-c2cn(-c3ccc(F)c(N4CCC(F)(F)CC4)n3)nn2)c(N2CCC3(CC2)CC3)c1 [Compound 140, N-(4-(1-(6-(4,4-difluoropiperidin-1-yl)-5-fluoropyridin-2-yl)-1H-1,2,3-triazol-4-yl)-3-(6-azaspiro[2.5]octan-6-yl)phenyl)-2-hydroxyethane-1-sulfonamide]"
25,18 nM,"CC(C)(C)NS(=O)(=O)c1cccc(-c2cn(-c3ccc(NS(=O)(=O)C4(CO)CC4)cc3N3CCC4(CC3)CC4)nn2)c1 [Compound 122, N-(tert-butyl)-3-(1-(4-((1-(hydroxymethyl)cyclopropane)-1-sulfonamido)-2-(6-azaspiro[2.5]octan-6-yl)phenyl)-1H-1,2,3-triazol-4-yl)benzenesulfonamide]"

# Source: patent publication US20230382889A1 (Volastra Therapeutics, Inc., priority 2022, published 2023)
